Reference: patent US20150010502A1, “Compositions and Methods for Suppressing Gene Expression of p53 and Clusterin” (priority 2011, published 2015)
e = 2'-O-(2-methoxyethyl) (MOE); d = 2'-deoxy (DNA)

Legend:
[1] = test system: U2OS cells (osteosarcoma); assay: U2OS cells treated with PMO, cisplatin followed by Go6976 (FIG. 5); format: cell-based; conditions: PMO 3 uM 2 h; for enhancement of sensitivity to cisplatin: Cis 5 uM 24 h
Protocol: FIG. 5 is a graph showing the results obtained with U2OS cells treated with PMO (3 uM, 2 h), Cis (5 uM, 24 h) followed by Go6976 (100 nM, 24 h).
(§1) In further studies, additional agents were tested in conjunction with p53 morpholinos. […] We also tested these agents on U2OS cells (osteosarcoma). Again a dramatic effect on cell cycle that is dependent on PMOs and Go is observed. PMOs give a 3-fold enhancement of drug sensitivity in the caspase 3 assay. We also assessed U2OS cells treated with PMOs (p53-A and p53-B) +/−cisplatin+/−Go6976.

[2] = test system: U2OS cells (osteosarcoma); assay: U2OS cells treated with PMO, Dox followed by Go6976: cell cycle and caspase 3 assay (FIG. 4); format: cell-based; conditions: PMO 3 uM 2 h, Dox 200 ng/ml 24 h, +/- Go6976 100 nM 24 h
Protocol: FIG. 4 is a graph showing the results obtained with U2OS cells treated with PMO (3 uM, 2 h), Dox (200 ng/ml, 24 h) followed by Go6976 (100 nM, 24 h).
as §1

clusterin = conditions: cited from earlier work

Compound: Cn1c2ccccc2c2c3c(c4c5ccccc5n(CCC#N)c4c21)CNC3=O [Go6976]
- effect of Go6976 on the PMO enhancement of cisplatin sensitivity ([1]; Cis 5 uM 24 h followed by Go6976 100 nM 24 h): potentiates this enhancement

Compound: PMO A: p53 morpholino (PMO) with sequence corresponding to Seq Id 136 (NU(4)p53); (RX)8B CPP used in in vitro testing (CCATGGCAGTGACCCGGAAGGC; all phosphorodiamidate morpholino (PMO); (RX)8B cell-penetrating peptide conjugated, position not given here)
- enhancement of drug sensitivity in the caspase 3 assay [2]: 3 fold
- enhancement of sensitivity to cisplatin [1]: about 3 fold

Compound: PMO B: p53 morpholino (PMO) with sequence corresponding to Seq Id 140 (NU(7)p53); (RX)8B CPP used in in vitro testing (GCATCAAATCATCCATTGCTTG; all phosphorodiamidate morpholino (PMO); (RX)8B cell-penetrating peptide conjugated, position not given here)
- enhancement of drug sensitivity in the caspase 3 assay [2]: 3 fold
- enhancement of sensitivity to cisplatin [1]: about 3 fold

Compound: SEQ ID NO: 3: clusterin antisense oligo 5′-CAGCAGCAGAGTC TTCATCAT-3′, all phosphorothioate, terminal four nucleosides each end 2′-O-methyoxyethyl (CAGCAGCAGAGTCTTCATCAT; sugars from the 5' end e4 d13 e4, all phosphorothioate, methylation of C not given here)
- sensitization of cancer cells to radiation and chemotherapeutic agents (clusterin; cancer cells including prostate cancer cells): modestly sensitize some cancer cells
- suppressive activity on clusterin expression (clusterin): relatively poor suppressive activity
- effect on induction of apoptosis (clusterin; some cancer cells, including those deficient in p21 (WAF-1) expression): can inhibit the induction of apoptosis in some cancer cells
